Patent publication US9115106B2, “Use of 5-hydroxy-2-hydroxymethyl-γ-pyrone (HMP) as a leishmanicidal agent” (UNIVERSIDADE FEDERAL DO PARA, priority 2008, dated 2015)
Several values for one entry are separate records, joined by “and”; a condition that tells them apart may be missing. Equal values may be shown once.

Experiments:
[1] = system: rats; details: cited from earlier work
[2] = system: L. amazonensis amastigotes in infected macrophages; assay: Leishmanicidal activity on amastigotes during in vitro infection of macrophages; assay type: cell-based
Protocol: (§1) The peritoneal murine macrophage cells were cultured at 37° C. and 5% CO2 in Dulbecco's modified Eagle's medium (DMEM) supplemented with 10% heat-inactivated sterile filtered fetal bovine serum (FCS), 10 mM Hepes, pH 7.3, 100 U/mL penicillin and 100 µg/mL streptomycin (all from Gibco BRL/Life Technologies, Middlesex, UK). Cells were used after 24 hours of culture. L. amazonensis promastigotes were obtained from the Evandro Chagas Institute in NNN medium and maintained at 26° C. in RPMI1640 medium. Host cells were cultivated and infected or not with L. amazonensis, before treating or not with HMP at the same concentrations described previously.

[3] = ideal doses of consumption; no risk in doses of 0.03-0.06 mg/kg/day; cited from earlier work
[4] = system: bacteria (bacilos, Salmonella); details: cited from earlier work
[5] = system: leukemia P388; details: leukemia P388 in mice; cited from earlier work
[6] = system: melasma; details: HMP added to trichloroacetic acid and glycolic acid mixture; cited from earlier work
[7] = system: Leishmania promastigotes; assay: Leishmanicidal activity on promastigotes; assay type: cell-based, L. amazonensis; details: 50 μg/mL
[8] = system: thyroid; details: continued administration of high doses, rats; cited from earlier work
[9] = system: tyrosinases 1 and 2; details: Schistosoma mansoni eggs; cited from earlier work
[10] = system: peritoneal murine macrophage cells; assay: Morphological analysis of host cells by light, fluorescence and electron microscopy; assay type: cell-based; details: treated cells compared with control cells
Protocol: (§2) The peritoneal murine macrophage cells were cultured at 37° C. and 5% CO2 in Dulbecco's modified Eagle's medium (DMEM) supplemented with 10% heat-inactivated sterile filtered fetal bovine serum (FCS), 10 mM Hepes, pH 7.3, 100 U/mL penicillin and 100 µg/mL streptomycin (all from Gibco BRL/Life Technologies, Middlesex, UK). Cells were used after 24 hours of culture. Firstly, morphological alterations were observed by light and fluorescence microscopy, as well as transmission and scanning electron microscopy in host cells, treated or not with 10, 20 and 50 μg/mL of HMP diluted in DMEM. Viability analyses performed by through Thiazolyl Blue (MTT) e Neutral Red (NR) assays.

[11] = system: host cells infected with L. amazonensis; assay: Superoxide production, histochemical assay with Nitro Blue Tetrazolium (NBT); assay type: cell-based, murine; details: 50 μg/mL, compared with control cells
Protocol: as §1, with “culture.” for “culture. L. amazonensis promastigotes were obtained from the Evandro Chagas Institute in NNN medium and maintained at 26° C. in RPMI1640 medium.”

[12] = system: bacteria from various genera; details: Aerobacter, Bacillus, Escherichia, Staphylococcus and other genera; cited from earlier work
[13] = system: peritoneal murine macrophage cells; assay: Cellular viability by MTT and Neutral Red assays; assay type: cell-based; details: 10, 20 and 50 μg/mL HMP in DMEM
Protocol: as §2, with “Firstly, morphological alterations were observed by light and fluorescence microscopy, as well as transmission and scanning electron microscopy in host cells, treated or not with 10, 20 and 50 μg/mL of HMP diluted in DMEM.” left out

[14] = water, ethanol, or acetone; cited from earlier work
[15] = estimated; cited from earlier work

O=c1cc(CO)occ1O [HMP, 5-hydroxy-2-hydroxymethyl-γ-pyrone]
teratogenic effect [1]: did not cause any teratogenic effect
minimal concentration with leishmanicidal activity ([2]; activating host cell microbicidal response): 50 µg/mL
reduction in amastigotes during in vitro infection ([2]; cells treated with 50 μg/mL): 79%
effect on intracellular amastigote (ultrastructural observations) ([2]; parasites inside the macrophages): causing morphological alterations and death
toxic or genotoxic effects [3]: does not contain toxic or genotoxic effects
mutagenicity [4]: evidence in the literature regarding the mutagenicity of HMP in bacteria
antitumoural activity [5]: positive effects of antitumoural activity
effect on melasma treatment [6]: improved treatment of melasma
inhibition at 50 µg/mL [7]: 68%
thyroid tumour induction [8]: induction of thyroid adenomas
inhibition of tyrosinase activity [9]: inhibit the activity of tyrosinases 1 and 2
host cell activation (morphology) [10]: increase on actin filament polymerization and spreading
superoxide production (NBT) [11]: greater superoxide production
antibacterial activity [12]: inhibition of bacteria from various genera
cytotoxic effect by MTT and NR assays [13]: not due to unspecific cytotoxic effect
solubility [14]: freely soluble
pKa [15]: 7.90 and 8.03
